Molecular target: T1, ACR-16 (Caenorhabditis elegans, UniProt P48180)
T1 sequence (P48180 20-498): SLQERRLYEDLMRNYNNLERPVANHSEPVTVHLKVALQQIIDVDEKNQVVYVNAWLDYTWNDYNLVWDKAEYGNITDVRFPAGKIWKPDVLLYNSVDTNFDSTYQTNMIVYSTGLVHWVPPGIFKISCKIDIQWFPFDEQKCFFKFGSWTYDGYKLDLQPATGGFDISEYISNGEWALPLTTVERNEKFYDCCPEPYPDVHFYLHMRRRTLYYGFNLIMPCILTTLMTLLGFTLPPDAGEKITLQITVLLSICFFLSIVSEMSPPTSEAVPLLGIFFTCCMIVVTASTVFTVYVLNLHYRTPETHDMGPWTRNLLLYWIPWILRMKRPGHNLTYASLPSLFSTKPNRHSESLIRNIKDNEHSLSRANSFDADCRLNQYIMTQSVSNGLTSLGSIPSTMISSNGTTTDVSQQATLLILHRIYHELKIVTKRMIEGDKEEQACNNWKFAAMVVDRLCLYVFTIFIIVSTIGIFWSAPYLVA
Assay: two-electrode voltage clamp, Xenopus oocytes, peak current
Assay type: cell-based

| Structure (SMILES) | EC50 [µM] |
| --- | --- |
| CC(=O)OCC[N+](C)(C)C [acetylcholine] | 24 |
| CN1CCC[C@H]1c1cccnc1 [nicotine] | 22 |

Reference: article PMC3549563 (Journal of Neurochemistry, 2012)
